In patent US7790769B2, “Merocyanine derivatives” (Ciba Corporation, priority 2005, dated 2010):

Assay: Solubility behaviour in water and cosmetic solvents/oils
Type: physicochemical
Conditions: for Solubility behaviour [%], Cyclomethicone: solvent: Cyclomethicone; for Solubility behaviour [%], Finsolve TN: solvent: Finsolve TN; for Solubility behaviour [%], Jojoba Oil: solvent: Jojoba Oil; for Solubility behaviour [%], Mineral Oil: solvent: Mineral Oil; for Solubility behaviour [%], Mygliol: solvent: Mygliol; for Solubility behaviour [%], Polydecene: solvent: Polydecene; for Solubility behaviour [%], Propyleneglycol: solvent: Propyleneglycol; for Solubility behaviour [%], (Water): solvent: water

SMILES | Solubility behaviour [%], Cyclomethicone | Solubility behaviour [%], Finsolve TN | Solubility behaviour [%], Jojoba Oil | Solubility behaviour [%], Mineral Oil | Solubility behaviour [%], Mygliol | Solubility behaviour [%], Polydecene | Solubility behaviour [%], Propyleneglycol | Solubility behaviour [%], (Water)
CCCCC(CC)CN(CC(CC)CCCC)C1=CC(=C(C#N)C#N)CCC1 (stereo not shown) | 0.540% | >50% | >50% | 1.514% | >50% | 0.734% | 0.766% | 0.000%
CCCCC(CC)CN(CC(CC)CCCC)C1=CC(=C(C#N)C#N)CC(C)(C)C1 (stereo not shown) | 0.509% | >5% | 2.470% | 0.569% | >5% | 0.367% | 0.361% | 0.000%
